Data taken from patent EP0796041B1, “NEW HERBICIDAL COMPOSITIONS” (RHONE-POULENC AGRO, priority 1994, dated 1996).

Assays:
Experiment in all cases: Field trial Europe (Experiment A1), pre-emergence weed control in maize
Assay type in all cases: in vivo
Setaria viridis = conditions: BOLOGNA, 54DAT
Description: (§1) The following experiments were conducted on Compound A and Compound B in various field research stations in Europe during May. Compound A (as a 750 g/kg water dispersible granule formulation) and Compound B (as a 600 g/kg water dispersible granule formulation) were tested at the following dose rates (note that hereafter ai means active ingredient): Compound A : 50, 75, 100, 125 g ai/ha Compound B : 240, 360, 480, 600 g ai/ha Compound A + Compound B : 50 + 240/360/480 g ai/ha 75 + 240/360/480 g ai/ha 100 + 240/360/480 g ai/ha Trial and application conditions are given below in Table 1 (in the Tables that follow DAT means days after treatment): Table 1 [table] Weeds were drilled on the same day as maize. All trials were sprayed pre-emergence of the maize on the same day as drilling or within 2 days afterwards. Soil conditions were warm and wet, so that the crop and weeds emerged and grew quickly. Rainfall or irrigation occurred within 15 days of application. In this Table "Obs" is the observed value the value in brackets (Exp) is the expected value calculated using the Colby formula.

Amaranthus retroflexus = conditions: ALZONNE, 46DAT
Description: as §1

Polygonum lapathifolium = conditions: CHAZAY, 64DAT
Description: as §1

Echinochloa crus-galli = test system: Echinochloa crus-galli
Description: as §1

Compound: CS(=O)(=O)c1cc(C(F)(F)F)ccc1C(=O)c1cnoc1C1CC1 [Cpd A, 5-cyclopropyl-4-(2-methylsulphonyl-4-trifluoromethyl)benzoylisozaxole]
- percentage phytotoxicity Obs (Setaria viridis; Cpd A 50 g a.i./ha): 62%
- percentage phytotoxicity Obs (Setaria viridis; Cpd A 75 g a.i./ha): 82%
- percentage phytotoxicity Obs (Setaria viridis; Cpd A 100 g a.i./ha): 82%
- percentage phytotoxicity Obs (Setaria viridis; Cpd A 125 g a.i./ha): 97%
- percentage phytotoxicity Obs (Amaranthus retroflexus; Cpd A 50 g a.i./ha): 72%
- percentage phytotoxicity Obs (Amaranthus retroflexus; Cpd A 75 g a.i./ha): 70%
- percentage phytotoxicity Obs (Amaranthus retroflexus; Cpd A 100 g a.i./ha): 80%
- percentage phytotoxicity Obs (Amaranthus retroflexus; Cpd A 125 g a.i./ha): 95%
- percentage phytotoxicity Obs (Polygonum lapathifolium; Cpd A 50 g a.i./ha): 50%
- percentage phytotoxicity Obs (Polygonum lapathifolium; Cpd A 75 g a.i./ha): 90%
- percentage phytotoxicity Obs (Polygonum lapathifolium; Cpd A 100 g a.i./ha): 70%
- percentage phytotoxicity Obs (Polygonum lapathifolium; Cpd A 125 g a.i./ha): 95%
- percentage phytotoxicity Obs (Echinochloa crus-galli; ALZONNE, 46DAT, Cpd A 50 g a.i./ha): 45%
- percentage phytotoxicity Obs (Echinochloa crus-galli; ALZONNE, 46DAT, Cpd A 75 g a.i./ha): 35%
- percentage phytotoxicity Obs (Echinochloa crus-galli; ALZONNE, 46DAT, Cpd A 100 g a.i./ha): 82%
- percentage phytotoxicity Obs (Echinochloa crus-galli; ALZONNE, 46DAT, Cpd A 125 g a.i./ha): 85%
- percentage phytotoxicity Obs (Echinochloa crus-galli; BOLOGNA, 54DAT, Cpd A 50 g a.i./ha): 77%
- percentage phytotoxicity Obs (Echinochloa crus-galli; BOLOGNA, 54DAT, Cpd A 75 g a.i./ha): 91%
- percentage phytotoxicity Obs (Echinochloa crus-galli; BOLOGNA, 54DAT, Cpd A 100 g a.i./ha): 75%
- percentage phytotoxicity Obs (Echinochloa crus-galli; BOLOGNA, 54DAT, Cpd A 125 g a.i./ha): 100%

Compound: CC(C)N(C(=O)COc1nnc(C(F)(F)F)s1)c1ccc(F)cc1 [Cpd B, N-isopropyl-(5-trifluoromethyl-1,3,4-thiadiazol-2-yl)-4-(4'-fluoro-oxyacetanilide)]
- percentage phytotoxicity Obs (Setaria viridis; Cpd B 240 g a.i./ha): 85%
- percentage phytotoxicity Obs (Setaria viridis; Cpd B 360 g a.i./ha): 82%
- percentage phytotoxicity Obs (Setaria viridis; Cpd B 480 g a.i./ha): 86%
- percentage phytotoxicity Obs (Setaria viridis; Cpd B 600 g a.i./ha): 82%
- percentage phytotoxicity Obs (Amaranthus retroflexus; Cpd B 240 g a.i./ha): 30%
- percentage phytotoxicity Obs (Amaranthus retroflexus; Cpd B 360 g a.i./ha): 10%
- percentage phytotoxicity Obs (Amaranthus retroflexus; Cpd B 480 g a.i./ha): 67%
- percentage phytotoxicity Obs (Amaranthus retroflexus; Cpd B 600 g a.i./ha): 45%
- percentage phytotoxicity Obs (Polygonum lapathifolium; Cpd B 240 g a.i./ha): 25%
- percentage phytotoxicity Obs (Polygonum lapathifolium; Cpd B 360 g a.i./ha): 0%
- percentage phytotoxicity Obs (Polygonum lapathifolium; Cpd B 480 g a.i./ha): 25%
- percentage phytotoxicity Obs (Polygonum lapathifolium; Cpd B 600 g a.i./ha): 40%
- percentage phytotoxicity Obs (Echinochloa crus-galli; ALZONNE, 46DAT, Cpd B 240 g a.i./ha): 45%
- percentage phytotoxicity Obs (Echinochloa crus-galli; ALZONNE, 46DAT, Cpd B 360 g a.i./ha): 65%
- percentage phytotoxicity Obs (Echinochloa crus-galli; ALZONNE, 46DAT, Cpd B 480 g a.i./ha): 77%
- percentage phytotoxicity Obs (Echinochloa crus-galli; ALZONNE, 46DAT, Cpd B 600 g a.i./ha): 90%
- percentage phytotoxicity Obs (Echinochloa crus-galli; BOLOGNA, 54DAT, Cpd B 240 g a.i./ha): 35%
- percentage phytotoxicity Obs (Echinochloa crus-galli; BOLOGNA, 54DAT, Cpd B 360 g a.i./ha): 52%
- percentage phytotoxicity Obs (Echinochloa crus-galli; BOLOGNA, 54DAT, Cpd B 480 g a.i./ha): 65%
- percentage phytotoxicity Obs (Echinochloa crus-galli; BOLOGNA, 54DAT, Cpd B 600 g a.i./ha): 75%
